Assay results: patent US20260184708A1, “PYRIDAZINONES AND METHODS OF USE THEREOF” (GFB (ABC), LLC, priority 2017, published 2026)
Where two headings read alike, the source gives them in different places.

Target: T1, TRPC5 (Homo sapiens, UniProt Q9UL62)
T1 construct: expressed in transfected cells; host or cells: HEK 293
T1 sequence (Q9UL62 1-973): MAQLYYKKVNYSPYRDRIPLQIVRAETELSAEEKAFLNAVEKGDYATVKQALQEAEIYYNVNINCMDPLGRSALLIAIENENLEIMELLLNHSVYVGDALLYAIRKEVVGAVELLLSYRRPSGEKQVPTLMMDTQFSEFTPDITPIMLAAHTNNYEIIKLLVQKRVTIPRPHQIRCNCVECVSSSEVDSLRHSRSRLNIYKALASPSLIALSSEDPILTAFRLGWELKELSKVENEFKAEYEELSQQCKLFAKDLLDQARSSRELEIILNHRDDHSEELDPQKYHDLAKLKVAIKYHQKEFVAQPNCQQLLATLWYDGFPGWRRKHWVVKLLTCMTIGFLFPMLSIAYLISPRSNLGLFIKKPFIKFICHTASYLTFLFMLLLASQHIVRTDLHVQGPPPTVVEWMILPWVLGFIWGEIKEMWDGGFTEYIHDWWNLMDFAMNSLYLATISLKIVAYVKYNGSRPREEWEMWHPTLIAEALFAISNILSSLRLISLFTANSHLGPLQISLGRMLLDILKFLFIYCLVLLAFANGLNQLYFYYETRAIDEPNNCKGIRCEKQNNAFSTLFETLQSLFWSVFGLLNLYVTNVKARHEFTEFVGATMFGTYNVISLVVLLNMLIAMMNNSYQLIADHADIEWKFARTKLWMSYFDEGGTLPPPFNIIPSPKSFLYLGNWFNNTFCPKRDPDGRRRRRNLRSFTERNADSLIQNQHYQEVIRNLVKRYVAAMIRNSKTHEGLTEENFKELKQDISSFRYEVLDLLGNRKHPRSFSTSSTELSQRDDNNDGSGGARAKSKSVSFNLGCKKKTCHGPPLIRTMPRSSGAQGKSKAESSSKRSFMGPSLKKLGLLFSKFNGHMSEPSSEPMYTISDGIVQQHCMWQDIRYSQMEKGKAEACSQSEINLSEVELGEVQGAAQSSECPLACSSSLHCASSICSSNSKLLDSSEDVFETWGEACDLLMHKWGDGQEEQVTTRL
Assay: TRPC5 automated patch clamp assay (Qpatch), current block after rosiglitazone stimulation
Format: cell-based
Description: HEK 293 cells expressing human TRPC5 were harvested, re-suspended in serum free medium, and added to the automated platform and used within 2-3 hours. Internal and external physiological solutions were freshly prepared prior to the assay. The external solution contained: 145 mM NaCl, 4 mM KCl, 2 mM CaCl2), 1 mM MgCl2, 10 mM HEPES, 10 mM glucose, pH 7.4 with NaOH and 300 mOsm/L. The internal solution contained 120 mM L-aspartic acid, 120 mM CsOH·H2O, 20 mM CsCl, 2 mM MgCl2, 8.8 mM CaCl2), 10 mM EGTA, 10 mM HEPES, 10 mM Glucose, 0.1 mM GTP and 2 mM Na2ATP; pH 7.2 with CsOH and 290 mOsm/L. The free internal Ca2+ concentration was buffered to 1 μM.
The automated electrophysiological platform QPatch 16 from Sophion (Denmark) was used to carry out the compounds profiling. The series resistance and quality of seals were continuously monitored during the experiments. Data was analyzed using Sophion QPatch assay software 5.6 (Odense). IC50 values were calculated using a least squares regression algorithm (Hill equation).
To monitor the ion currents, a voltage ramp from −100 mV to +100 mV, over 300 ms, was applied every 10 seconds, from a holding potential of −60 mV.
After recording for a minimum of 60 seconds control period, Rosiglitazone (30 uM), was applied to activate the channel.

[1] = Table 4, HEK293 cells overexpressing TRPC5, rosiglitazone stimulation, 80 mV, read-out: TRPC5_QP_ XC50_80
[2] = Table 4, HEK293 cells overexpressing TRPC5, rosiglitazone stimulation, 100 mV, read-out: TRPC5_QP_ XC50_100
[3] = Table 5, HEK293 cells overexpressing TRPC5, rosiglitazone stimulation, 80 mV, read-out: TRPC5_QP_ XC50_80
[4] = Table 5, HEK293 cells overexpressing TRPC5, rosiglitazone stimulation, 100 mV, read-out: TRPC5_QP_ XC50_100
[5] = Table 3, HEK293 cells overexpressing TRPC5, rosiglitazone stimulation, 80 mV, read-out: TRPC5_QP_ XC50_80
[6] = Table 3, HEK293 cells overexpressing TRPC5, rosiglitazone stimulation, 100 mV, read-out: TRPC5_QP_ XC50_100
[7] = HEK293 cells overexpressing TRPC5, rosiglitazone stimulation, 80 mV, read-out: TRPC5_QP XC50_80
[8] = HEK293 cells overexpressing TRPC5, rosiglitazone stimulation, 100 mV, read-out: TRPC5_QP XC50_100

Cc1ccccc1CN1CCN(c2cn[nH]c(=O)c2CCC(C)C)CC1=O [drawing 700]
IC50 [1]: 10 to 500 µM
IC50 [2]: 10 to 500 µM

Cc1ccccc1Cn1cnc2c1CN(c1cn[nH]c(=O)c1Cl)CC2
IC50 [3]: 10 to 500 µM
IC50 [4]: 10 to 500 µM

O=C1CN(c2cn[nH]c(=O)c2Br)CCN1Cc1cccc2ccccc12 [drawing 665]
IC50 [5]: 1e-05 to 1 µM
IC50 [6]: 1e-05 to 1 µM

Cc1ccccc1CN1CCN(c2cn[nH]c(=O)c2N2CCOCC2)CC1=O
IC50 [5]: 10 to 500 µM
IC50 [6]: 10 to 500 µM

Cc1ccccc1CN1CCN(c2cn[nH]c(=O)c2-c2ccccc2)CC1=O
IC50 [5]: 10 to 500 µM
IC50 [6]: 10 to 500 µM

Cc1ccccc1CN1CCN(c2cn[nH]c(=O)c2-c2ccccn2)CC1=O
IC50 [5]: 10 to 500 µM
IC50 [6]: 10 to 500 µM

O=c1[nH]ncc(N2CCc3c(ncn3Cc3cccc(C(F)(F)F)c3)C2)c1Cl
IC50: 1 to 5 µM

COc1ncccc1CN1CCN(c2cn[nH]c(=O)c2Cl)CC1
IC50 [3]: 1 to 5 µM
IC50 [4]: 1 to 5 µM

Cc1ccccc1S(=O)(=O)N1CCN(c2cn[nH]c(=O)c2Br)CC1
IC50 [7]: 10 to 500 µM
IC50 [8]: 10 to 500 µM

O=C1CN(c2cn[nH]c(=O)c2Cl)CCN1Cc1c(F)cccc1F
IC50 [5]: 1 to 5 µM
IC50 [6]: 1 to 5 µM

O=C1CN(c2cn[nH]c(=O)c2Cl)CCN1Cc1ccc(F)cc1Cl [drawing 682]
IC50 [5]: 1 to 5 µM
IC50 [6]: 1 to 5 µM

Cc1ccccc1CN1CCC2(C1)CN(c1cn[nH]c(=O)c1Br)C2
IC50 [5]: 10 to 500 µM
IC50 [6]: 10 to 500 µM

Cn1ncc2c(CN3CCN(c4cn[nH]c(=O)c4Cl)CC3=O)cccc21
IC50 [1]: 1 to 5 µM
IC50 [2]: 1 to 5 µM

O=c1[nH]ncc(N2CCc3ncn(Cc4ccccc4)c3C2)c1Cl
IC50 [3]: 10 to 500 µM
IC50 [4]: 10 to 500 µM

CN1CCN(c2cn[nH]c(=O)c2Br)CC1
IC50 [7]: 10 to 500 µM
IC50 [8]: 10 to 500 µM

O=C1CN(c2cn[nH]c(=O)c2Br)CCN1CC1CCCCC1
IC50 [5]: 1 to 5 µM
IC50 [6]: 1 to 5 µM

O=c1[nH]ncc(N2CCN(Cc3ccccc3)C3(CC3)C2)c1Br
IC50 [7]: 10 to 500 µM
IC50 [8]: 10 to 500 µM

COc1cc(F)ccc1CN1CCN(c2c(Cl)cn[nH]c2=O)CC1=O
IC50 [3]: 10 to 500 µM
IC50 [4]: 10 to 500 µM

Cc1ccccc1CN1CCN(c2c(Cl)cn[nH]c2=O)CC1
IC50 [1]: 5 to 10 µM
IC50 [2]: 5 to 10 µM

CCc1cc(F)ccc1Cn1cnc2c1CCN(c1cn[nH]c(=O)c1Cl)C2 [drawing 889]
IC50 (Table 6, HEK293 cells overexpressing TRPC5, read-out: TRPC5-QPatch IC50): 1e-05 to 1 µM

Cc1cc(F)ccc1CN1CCN(c2cc(=O)[nH]nc2C)CC1=O
IC50 [3]: 10 to 500 µM
IC50 [4]: 10 to 500 µM

C[C@H](c1ccccc1)N1CCN(c2cn[nH]c(=O)c2Cl)CC1
IC50 [1]: 1 to 5 µM
IC50 [2]: 1 to 5 µM

O=C1CN(c2cn[nH]c(=O)c2Cl)CCN1Cc1cccc2ccccc12
IC50 [1]: 1e-05 to 1 µM
IC50 [2]: 1e-05 to 1 µM

Cc1ccccc1CN1CCN(c2cn[nH]c(=O)c2CC(C)C)CC1=O
IC50 [1]: 10 to 500 µM
IC50 [2]: 10 to 500 µM

Cc1ccccc1CN1CCN(c2cn[nH]c(=O)c2Cl)CC1=O [drawing 631]
IC50 [7]: 1e-05 to 1 µM
IC50 [8]: 1e-05 to 1 µM

CCS(=O)(=O)c1c(N2CCN(Cc3ccccc3C)C(=O)C2)cn[nH]c1=O
IC50 [5]: 10 to 500 µM
IC50 [6]: 10 to 500 µM

O=c1[nH]ncc(N2CCN(S(=O)(=O)c3ccccc3)CC2)c1Br
IC50 [7]: 10 to 500 µM
IC50 [8]: 10 to 500 µM

Cc1ccccc1CN1CCN(c2cn[nH]c(=O)c2Cl)C(C)C1 (stereo not drawn)
IC50 [1]: 1 to 5 µM
IC50 [2]: 1 to 5 µM

O=C1CN(c2cn[nH]c(=O)c2Br)CCN1Cc1ccc(F)cc1F
IC50 [5]: 1 to 5 µM
IC50 [6]: 1 to 5 µM

O=C1CN(c2cn[nH]c(=O)c2Cl)CCN1Cc1ccc(-c2ccccc2)cc1
IC50 [1]: 10 to 500 µM
IC50 [2]: 10 to 500 µM

O=c1[nH]ncc(N2CCN(Cc3ccccc3Cl)CC2)c1Cl [drawing 676]
IC50 [5]: 1 to 5 µM
IC50 [6]: 1 to 5 µM

Cc1cc(F)ccc1CN1CCN(c2c(Cl)c(Br)n[nH]c2=O)CC1=O
IC50 [1]: 10 to 500 µM
IC50 [2]: 10 to 500 µM

Cc1ccccc1CN1C2CC1CN(c1cn[nH]c(=O)c1Br)C2
IC50 [5]: 10 to 500 µM
IC50 [6]: 10 to 500 µM

O=c1[nH]ncc(N2CCN(Cc3ccccc3)CC2)c1Br
IC50 [7]: 5 to 10 µM
IC50 [8]: 5 to 10 µM

Cc1n[nH]c(=O)c(N2CCN(Cc3ccccc3OC(F)(F)F)C(=O)C2)c1Cl
IC50 [3]: 5 to 10 µM
IC50 [4]: 5 to 10 µM

O=C1CN(c2cn[nH]c(=O)c2Cl)CCN1Cc1ccc(Oc2ccccc2)cc1
IC50 [1]: 10 to 500 µM
IC50 [2]: 10 to 500 µM

Cc1n[nH]c(=O)c(N2CCN(Cc3ccc(F)cc3C(F)(F)F)C(=O)C2)c1Cl
IC50 [3]: 10 to 500 µM
IC50 [4]: 10 to 500 µM

CCN(CC)C(=O)CN1CCN(c2cn[nH]c(=O)c2Cl)CC1
IC50 [1]: 10 to 500 µM
IC50 [2]: 10 to 500 µM

Cc1cc(F)ccc1CN1CCN(c2ccn[nH]c2=O)CC1
IC50 [3]: 10 to 500 µM
IC50 [4]: 10 to 500 µM

O=c1[nH]ncc(N2CCN(Cc3ccc(C(F)(F)F)cc3)CC2)c1Cl
IC50 [5]: 10 to 500 µM
IC50 [6]: 10 to 500 µM

O=C1CN(c2cn[nH]c(=O)c2Cl)CCN1Cc1cccnc1Cl
IC50 [3]: 10 to 500 µM
IC50 [4]: 10 to 500 µM

C=C(C)c1c(N2CCN(Cc3ccccc3C)C(=O)C2)cn[nH]c1=O
IC50 [1]: 10 to 500 µM
IC50 [2]: 10 to 500 µM

O=c1[nH]ncc(N2CCCN(Cc3ccccc3)CC2)c1Br
IC50 [5]: 10 to 500 µM
IC50 [6]: 10 to 500 µM

O=C1CN(c2c(Cl)c(Br)n[nH]c2=O)CCN1Cc1ccccc1C(F)(F)F
IC50 [1]: 1 to 5 µM
IC50 [2]: 5 to 10 µM

O=c1[nH]ncc(N2CCN(Cc3ccc(F)cc3C(F)(F)F)CC2)c1Cl
IC50 [3]: 1 to 5 µM
IC50 [4]: 1 to 5 µM

Cc1ccccc1CN1CCN(c2cn[nH]c(=O)c2Br)CC12CC2
IC50 [7]: 10 to 500 µM
IC50 [8]: 10 to 500 µM

Cc1ccccc1CN1CCN(c2ccn[nH]c2=O)CC1=O
IC50 [3]: 10 to 500 µM
IC50 [4]: 10 to 500 µM

Cc1ncccc1CN1CCN(c2cn[nH]c(=O)c2Cl)CC1=O
IC50 [3]: 10 to 500 µM
IC50 [4]: 10 to 500 µM

Cc1cc(C(F)(F)F)ccc1CN1CCN(c2cn[nH]c(=O)c2Cl)CC1=O
IC50 [3]: 1 to 5 µM
IC50 [4]: 10 to 500 µM
